According to publication PMC12120022, “Discovery and chemical optimisation of a potent, Bi-cyclic antimicrobial inhibitor of Escherichia coli PBP3” (Communications Biology, 2025):
Where a SMILES comes first, the peptide text is derived from it.

These compounds were tested against T1, EcPBP3 (Escherichia coli, UniProt P0AD68) (assay: Fluorescence polarisation competition assay with BOCILLIN-FL as tracer). Conditions: competition format; NB, non-binder (100 μM top concentration).
T1 construct: For assays, selections and SPR a construct with residues 60–588 which has the N-terminal domain, but not the transmembrane helix, was used; made in house
Assay type: binding
Experimental: Binding of output peptides to EcPBP3 was evaluated using a fluorescence polarisation (FP) assay.
[…] 10 µL of protein (9.4 nM) was mixed with either 5 µL of peptide or 5 µL of buffer and then the assay was initiated by the addition of 10 µL of tracer (1 nM) (final volume 25 µL), in a black 384 low bind, low volume plate (Corning). The buffer was 10 mM HEPES (Sigma), 2% (v/v) glycerol (Sigma), 300 mM NaCl (Sigma), adjusted to pH 8. The plate was incubated for 1 h at 25 °C and then read in a PHERAstar FS (BMG) using with an “FP 485 520 520” optic module (excitation 485 nm, emission 520 nm). The gain was determined immediately prior to the read on a tracer-only well.
Dotmatics (Dotmatics) workflows performing the above calculations were used to process the data. Values quoted are the geometric means of at least 2 repeats.

T1 sequence (P0AD68 60-588): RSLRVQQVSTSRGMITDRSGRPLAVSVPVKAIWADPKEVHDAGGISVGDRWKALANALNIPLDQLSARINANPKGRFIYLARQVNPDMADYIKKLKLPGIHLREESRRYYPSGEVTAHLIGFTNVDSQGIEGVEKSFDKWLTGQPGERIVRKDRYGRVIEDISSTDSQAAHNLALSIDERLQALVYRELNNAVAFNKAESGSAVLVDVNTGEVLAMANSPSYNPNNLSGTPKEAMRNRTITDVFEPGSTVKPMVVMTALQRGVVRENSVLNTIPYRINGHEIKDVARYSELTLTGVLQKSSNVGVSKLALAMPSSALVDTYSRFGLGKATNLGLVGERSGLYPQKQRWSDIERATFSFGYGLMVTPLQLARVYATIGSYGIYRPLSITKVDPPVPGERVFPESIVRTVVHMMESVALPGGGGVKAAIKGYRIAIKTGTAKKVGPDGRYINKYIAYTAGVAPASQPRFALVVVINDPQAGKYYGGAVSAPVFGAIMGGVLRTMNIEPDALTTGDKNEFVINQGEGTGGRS

Compound	IC50 (nM) by fluorescence polarisation with Bocillin FL as tracer, Geometric mean (Lower 95% CI of geo. Mean; Upper 95% CI of geo. Mean, n=number of values)
CC(C)C[C@@H]1NC(=O)[C@@H](NC(=O)[C@H](C)N)CSCCC(=O)N2CN3CN(C2)C(=O)CCSC[C@H](NC(=O)[C@H](CC(N)=O)NC(=O)[C@H](CCC(=O)O)NC1=O)C(=O)N[C@@H](Cc1ccc(O)cc1)C(=O)N[C@@H](Cc1ccc(O)cc1)C(=O)N[C@@H](C(C)C)C(=O)N1CCC[C@H]1C(=O)N[C@@H](Cc1ccc(O)cc1)C(=O)N[C@@H](Cc1ccc(O)cc1)C(=O)NCC(=O)N[C@@H](Cc1ccc(O)cc1)C(=O)N[C@@H](C)C(=O)N[C@H](C(=O)N[C@@H](C)C(N)=O)CSCCC3=O [Peptide 13] (HELM PEPTIDE1{A.C.L.E.N.C.Y.Y.V.P.Y.Y.G.Y.A.C.A.[am]}|CHEM1{[O=C(CC[*:1])N1CN(C(=O)CC[*:2])CN(C(=O)CC[*:3])C1]}$PEPTIDE1,CHEM1,2:R3-1:R1|PEPTIDE1,CHEM1,6:R3-1:R2|PEPTIDE1,CHEM1,16:R3-1:R3$$$V2.0)	showed binding to EcPBP3

Same assay, conditions: competition format; NB, non-binder (100 μM top concentration); read-out: IC50 (nM) by fluorescence polarisation with Bocillin FL as tracer, Geometric mean (Lower 95% CI of geo. Mean; Upper 95% CI of geo. Mean, n=number of values)

Compound	IC50 [nM]
CC[C@H](C)[C@@H]1NC(=O)[C@@H](NC(=O)[C@H](C)N)CSCCC(=O)N2CN3CN(C2)C(=O)CCSC[C@H](NC(=O)[C@H](CCCNC(=N)N)NC(=O)[C@H](CCC(=O)O)NC(=O)[C@H](CCCNC(=N)N)NC1=O)C(=O)N[C@@H](Cc1c[nH]c2ccccc12)C(=O)N[C@@H](CC(=O)O)C(=O)N[C@@H](CC(C)C)C(=O)N[C@@H](CCCCN)C(=O)N[C@@H](CCC(=O)O)C(=O)N[C@@H](CC(N)=O)C(=O)N[C@@H](CC(=O)O)C(=O)N[C@@H](Cc1c[nH]c2ccccc12)C(=O)N[C@H](C(=O)N[C@@H](C)C(N)=O)CSCCC3=O [Peptide 14] (HELM PEPTIDE1{A.C.I.R.E.R.C.W.D.L.K.E.N.D.W.C.A.[am]}|CHEM1{[O=C(CC[*:1])N1CN(C(=O)CC[*:2])CN(C(=O)CC[*:3])C1]}$PEPTIDE1,CHEM1,2:R3-1:R1|PEPTIDE1,CHEM1,7:R3-1:R2|PEPTIDE1,CHEM1,16:R3-1:R3$$$V2.0)	> 100000
CC[C@H](C)[C@@H]1NC(=O)[C@H]([C@@H](C)O)NC(=O)[C@H](CC(=O)O)NC(=O)[C@H](C)NC(=O)[C@@H](NC(=O)[C@H](C)N)CSCCC(=O)N2CN3CN(C2)C(=O)CCSC[C@@H](C(=O)N[C@@H](C)C(N)=O)NC(=O)[C@@H]2CCCN2C(=O)[C@H](Cc2ccc(O)cc2)NC(=O)[C@@H]2CCCN2C(=O)[C@H](C(C)C)NC(=O)[C@H](CSCCC3=O)NC(=O)[C@H]([C@@H](C)O)NC(=O)[C@H](CC(C)C)NC(=O)[C@H](CO)NC(=O)[C@H](Cc2ccc(O)cc2)NC1=O [Peptide 6] (HELM PEPTIDE1{A.C.A.D.T.I.Y.S.L.T.C.V.P.Y.P.C.A.[am]}|CHEM1{[O=C(CC[*:1])N1CN(C(=O)CC[*:2])CN(C(=O)CC[*:3])C1]}$PEPTIDE1,CHEM1,2:R3-1:R1|PEPTIDE1,CHEM1,11:R3-1:R2|PEPTIDE1,CHEM1,16:R3-1:R3$$$V2.0)	> 100000
CC(C)C[C@@H]1NC(=O)[C@H](Cc2ccccc2)NC(=O)[C@H](CCC(=O)O)NC(=O)[C@H]([C@@H](C)O)NC(=O)[C@H](C)NC(=O)[C@@H](NC(=O)[C@H](C)N)CSCCC(=O)N2CN3CN(C2)C(=O)CCSC[C@H](NC(=O)[C@H](CC(C)C)NC(=O)[C@@H]2CCCN2C(=O)[C@H](Cc2ccc(O)cc2)NC1=O)C(=O)N[C@@H](Cc1c[nH]c2ccccc12)C(=O)N[C@@H](Cc1c[nH]c2ccccc12)C(=O)N[C@@H](CC(=O)O)C(=O)N[C@@H](CC(N)=O)C(=O)N[C@H](C(=O)N[C@@H](C)C(N)=O)CSCCC3=O [Peptide 7] (HELM PEPTIDE1{A.C.A.T.E.F.L.Y.P.L.C.W.W.D.N.C.A.[am]}|CHEM1{[O=C(CC[*:1])N1CN(C(=O)CC[*:2])CN(C(=O)CC[*:3])C1]}$PEPTIDE1,CHEM1,2:R3-1:R1|PEPTIDE1,CHEM1,11:R3-1:R2|PEPTIDE1,CHEM1,16:R3-1:R3$$$V2.0)	> 100000
CC(C)C[C@@H]1NC(=O)[C@@H]2CSCCC(=O)N3CN(CN(C3)C(=O)CCSC[C@@H](C(=O)N[C@@H](C)C(N)=O)NC(=O)[C@H](Cc3c[nH]c4ccccc34)NC(=O)[C@H](CC(=O)O)NC(=O)[C@H](CC(N)=O)NC(=O)[C@H](CCCCN)NC(=O)[C@H](C)NC1=O)C(=O)CCSC[C@H](NC(=O)[C@H](C)N)C(=O)N[C@@H](C)C(=O)N[C@@H](C)C(=O)N[C@@H](CC(=O)O)C(=O)N[C@@H](CCCNC(=N)N)C(=O)N[C@@H](CC(C)C)C(=O)N[C@@H](Cc1c[nH]c3ccccc13)C(=O)N2 [Peptide 1] (HELM PEPTIDE1{A.C.A.A.D.R.L.W.C.L.A.K.N.D.W.C.A.[am]}|CHEM1{[O=C(CC[*:1])N1CN(C(=O)CC[*:2])CN(C(=O)CC[*:3])C1]}$PEPTIDE1,CHEM1,2:R3-1:R1|PEPTIDE1,CHEM1,9:R3-1:R2|PEPTIDE1,CHEM1,16:R3-1:R3$$$V2.0)	> 100000
CC(C)C[C@@H]1NC(=O)[C@H](C)NC(=O)[C@@H]2CSCCC(=O)N3CN(CN(C3)C(=O)CCSC[C@H](NC(=O)[C@H](C)N)C(=O)N3CCC[C@H]3C(=O)N[C@@H](CCC(=O)O)C(=O)N[C@@H](CCCNC(=N)N)C(=O)N[C@@H](CC(C)C)C(=O)N2)C(=O)CCSC[C@@H](C(=O)N[C@@H](C)C(N)=O)NC(=O)[C@H](CCCNC(=N)N)NC(=O)[C@H](CC(C)C)NC(=O)[C@H]([C@@H](C)O)NC(=O)[C@@H]2CCCN2C(=O)[C@H](CC(C)C)NC(=O)CNC1=O [Peptide 12] (HELM PEPTIDE1{A.C.P.E.R.L.C.A.L.G.L.P.T.L.R.C.A.[am]}|CHEM1{[O=C(CC[*:1])N1CN(C(=O)CC[*:2])CN(C(=O)CC[*:3])C1]}$PEPTIDE1,CHEM1,2:R3-1:R1|PEPTIDE1,CHEM1,7:R3-1:R2|PEPTIDE1,CHEM1,16:R3-1:R3$$$V2.0)	> 100000
CC(C)C[C@@H]1NC(=O)[C@@H](NC(=O)[C@H](C)N)CSCCC(=O)N2CN3CN(C2)C(=O)CCSC[C@H](NC(=O)[C@H](CC(N)=O)NC(=O)[C@H](CCC(=O)O)NC1=O)C(=O)N[C@@H](Cc1ccc(O)cc1)C(=O)N[C@@H](Cc1ccc(O)cc1)C(=O)N[C@@H](C(C)C)C(=O)N1CCC[C@H]1C(=O)N[C@@H](Cc1ccc(O)cc1)C(=O)N[C@@H](Cc1ccc(O)cc1)C(=O)NCC(=O)N[C@@H](Cc1ccc(O)cc1)C(=O)N[C@@H](C)C(=O)N[C@H](C(=O)N[C@@H](C)C(N)=O)CSCCC3=O [Peptide 13] (HELM PEPTIDE1{A.C.L.E.N.C.Y.Y.V.P.Y.Y.G.Y.A.C.A.[am]}|CHEM1{[O=C(CC[*:1])N1CN(C(=O)CC[*:2])CN(C(=O)CC[*:3])C1]}$PEPTIDE1,CHEM1,2:R3-1:R1|PEPTIDE1,CHEM1,6:R3-1:R2|PEPTIDE1,CHEM1,16:R3-1:R3$$$V2.0)	3800
CC(C)C[C@@H]1NC(=O)[C@H](Cc2c[nH]c3ccccc23)NC(=O)[C@H](CCC(=O)O)NC(=O)[C@@H]2CCCN2C(=O)[C@H]([C@@H](C)O)NC(=O)[C@H](CCCCN)NC(=O)[C@H](C)NC(=O)[C@@H](NC(=O)[C@H](C)N)CSCCC(=O)N2CN3CN(C2)C(=O)CCSC[C@@H](C(=O)N[C@@H](C)C(N)=O)NC(=O)[C@H](Cc2ccc(O)cc2)NC(=O)[C@H](C)NC(=O)[C@H](CC(N)=O)NC(=O)[C@H](Cc2ccccc2)NC(=O)CNC(=O)[C@H](CSCCC3=O)NC1=O [Peptide 3] (HELM PEPTIDE1{A.C.A.K.T.P.E.W.L.C.G.F.N.A.Y.C.A.[am]}|CHEM1{[O=C(CC[*:1])N1CN(C(=O)CC[*:2])CN(C(=O)CC[*:3])C1]}$PEPTIDE1,CHEM1,2:R3-1:R1|PEPTIDE1,CHEM1,10:R3-1:R2|PEPTIDE1,CHEM1,16:R3-1:R3$$$V2.0)	> 100000
CSCC[C@@H]1NC(=O)[C@H](CC(N)=O)NC(=O)[C@H]([C@@H](C)O)NC(=O)[C@H](Cc2ccccc2)NC(=O)[C@H](CCC(=O)O)NC(=O)[C@H](CC(C)C)NC(=O)[C@@H]2CSCCC(=O)N3CN(CN(C3)C(=O)CCSC[C@@H](C(=O)N[C@@H](C)C(N)=O)NC1=O)C(=O)CCSC[C@H](NC(=O)[C@H](C)N)C(=O)N[C@@H](Cc1ccc(O)cc1)C(=O)N[C@@H](CCCCN)C(=O)N[C@@H](Cc1ccc(O)cc1)C(=O)N1CCC[C@H]1C(=O)NCC(=O)N[C@@H](CC(C)C)C(=O)N2 [Peptide 9] (HELM PEPTIDE1{A.C.Y.K.Y.P.G.L.C.L.E.F.T.N.M.C.A.[am]}|CHEM1{[O=C(CC[*:1])N1CN(C(=O)CC[*:2])CN(C(=O)CC[*:3])C1]}$PEPTIDE1,CHEM1,2:R3-1:R1|PEPTIDE1,CHEM1,9:R3-1:R2|PEPTIDE1,CHEM1,16:R3-1:R3$$$V2.0)	> 100000
CC(C)C[C@@H]1NC(=O)[C@H](CCC(=O)O)NC(=O)[C@@H]2CCCN2C(=O)[C@@H]2CCCN2C(=O)[C@H](CC(C)C)NC(=O)CNC(=O)[C@@H]2CCCN2C(=O)[C@H](Cc2ccc(O)cc2)NC(=O)[C@@H](NC(=O)[C@H](C)N)CSCCC(=O)N2CN3CN(C2)C(=O)CCSC[C@H](NC1=O)C(=O)N[C@@H](CO)C(=O)N1CCC[C@H]1C(=O)N[C@@H](CO)C(=O)N[C@@H](Cc1ccccc1)C(=O)N[C@H](C(=O)N[C@@H](C)C(N)=O)CSCCC3=O [Peptide 10] (HELM PEPTIDE1{A.C.Y.P.G.L.P.P.E.L.C.S.P.S.F.C.A.[am]}|CHEM1{[O=C(CC[*:1])N1CN(C(=O)CC[*:2])CN(C(=O)CC[*:3])C1]}$PEPTIDE1,CHEM1,2:R3-1:R1|PEPTIDE1,CHEM1,11:R3-1:R2|PEPTIDE1,CHEM1,16:R3-1:R3$$$V2.0)	> 100000
CC(C)C[C@@H]1NC(=O)[C@@H]2CCCN2C(=O)[C@H](Cc2ccc(O)cc2)NC(=O)[C@H](C(C)C)NC(=O)[C@H](C(C)C)NC(=O)[C@H](CCC(=O)O)NC(=O)[C@@H](NC(=O)[C@H](C)N)CSCCC(=O)N2CN3CN(C2)C(=O)CCSC[C@H](NC1=O)C(=O)N[C@@H](Cc1ccc(O)cc1)C(=O)N[C@@H](Cc1c[nH]c2ccccc12)C(=O)N[C@@H](CO)C(=O)N[C@@H](CC(=O)O)C(=O)N[C@H](C(=O)N[C@@H](C)C(N)=O)CSCCC3=O [Peptide 8] (HELM PEPTIDE1{A.C.E.V.V.Y.P.L.C.Y.W.S.D.C.A.[am]}|CHEM1{[O=C(CC[*:1])N1CN(C(=O)CC[*:2])CN(C(=O)CC[*:3])C1]}$PEPTIDE1,CHEM1,2:R3-1:R1|PEPTIDE1,CHEM1,9:R3-1:R2|PEPTIDE1,CHEM1,14:R3-1:R3$$$V2.0)	> 100000
